We go through 16 compounds from paper PMC10707934, “Design and Synthesis of Novel α-Methylchalcone Derivatives, Anti-Cervical Cancer Activity, and Reversal of Drug Resistance in HeLa/DDP Cells” (Molecules, 2023).

The test system of data set [1] is human cervical epithelial cells H8. Kind of data set: MTT toxicity assay, normal cervical epithelial cells H8. The settings on record: Homo sapiens, Epithelial cell, 48 h, mean ± SD. It is filed as cell-based. Here is the method: (§1) All cell types, at a volume of 200 µL per well, were inoculated in 96-well plates at a density of 2.5 × 10^4 cells / mL and cultured for 24 h in an incubator with 5% CO2 at 37 °C. The old culture medium was replaced with 200 µL of fresh medium per well containing positive compounds, at concentrations of 1, 6.25, 12.5, 25, 50, and 100 μM. After 48 h of culture, 20 µL per well of 5 mg·mL^−1 MTT solution was added. After 4 h of culture, the old solution was discarded, and 150 µL per well of DMSO solution was added. Using an enzyme labeler (Thermo Fisher Scientific, Multiskan GO, Waltham, MA, USA), the plates were shaken for 10 min, OD values were determined at 490 nm, and the inhibition rate was calculated. Non-linear regression fitting of the cell growth rate was carried out using SPSS 23.0, and the IC50 of the compound was calculated. The inhibition rate was calculated using the formula: [(ODempty − ODtest)/(ODempty − ODnegative group)] × 100%, (ODempty blank group absorbance, ODtest absorbance of administration group, ODnegative group without cell culture medium). Each group contained six compound holes, and the experimental results averaged three trials. Complete medium containing only cells was used as the blank control; a complete medium without cells as was used as the negative control; and cisplatin, paclitaxel, and adriamycin were used as the positive controls. The concentration gradient was the same as that used for compounds 3a–3p.
On the technique in general: Tetrazolium assays rely on reduction of a dye to a coloured formazan, in cell work by metabolically active cells.

In a further data set the test system is HeLa cells. Kind of data set: MTT anti-proliferation assay, HeLa. The class given is cell-based, human. The settings on record: Homo sapiens, 48 h, mean ± SD. Here is the method:
as §1, with “3a–3p. […]” for “3a–3p.”

For a further data set, the system named is SiHa cells. Kind of data set: MTT anti-proliferation assay, SiHa. The class given is cell-based, human. The settings on record: Homo sapiens, 48 h, mean ± SD. The method, then: as §1
Another data set relates to C33A cells. Nature of the data set: MTT anti-proliferation assay, C33A. It is filed as cell-based, human. The settings on record: Homo sapiens, C-33-A, 48 h, mean ± SD. Here is the method: as §1
A further data set concerns HeLa/DDP cells. Nature of the data set: MTT anti-cisplatin-resistant cervical cancer activity, HeLa/DDP. The class given is cell-based, human. The settings on record: 48 h. The method, then:
as §1
To mitigate the detrimental consequences arising from the fixation of resistance reversal agents, concentrations that yielded a tumor cell proliferation rate reduction of less than 10% were selected. Consequently, the inhibitory efficacy of compound 3k against HeLa/DDP cells was assessed in conjunction with cisplatin at concentrations of 0.25, 0.5, and 1 μM. The experimental procedure employed was akin to that elucidated in Section 3.3.2. The impact of verapamil (6 μM) and 3k (0.25, 0.5, and 1 μM) on P-gp expression was ascertained via Western blot experiments, employing the same methodology delineated in Section 3.3.4.

Broadly, the IC50 is the midpoint of a concentration-inhibition curve. As usually defined, the melting point is the temperature, or range, at which the solid turns liquid. For `COc1cccc(OC)c1/C=C(\C)C(=O)c1ccc(Cl)c(Cl)c1` [Compound 3g, (E)-1-(3,4-dichlorophenyl)-3-(2,6-dimethoxyphenyl)-2-methylprop-2-en-1-one], the melting point was 134.4 to 135.6 °C. Also, the IC50 in data set [1] is above 100 µM. In the data set on HeLa cells, this compound gave a 50% inhibitory concentration (IC50) of 56.1 ± 4.58 µM. The IC50 in the data set on SiHa cells is above 100 µM. The same compound came in with an IC50 with C33A cells of 44.8 ± 2.85 µM.
Regarding `COc1ccccc1/C=C(\C)C(=O)c1ccc(Cl)c(Cl)c1` [Compound 3l, (E)-1-(3,4-Dichlorophenyl)-3-(2-methoxyphenyl)-2-methylprop-2-en-1-one], the melting point fell in the range of 92.8 to 93.6 °C. The compound also had an IC50 in data set [1] above 100 µM. Also, the IC50 in the data set on HeLa cells was above 100 µM. Moreover, half-maximal inhibition in the data set with SiHa cells (IC50) required 22.5 ± 1.36 µM. Also, in the data set on C33A cells, half-maximal inhibition (IC50) was put at 17.3 ± 2.24 µM.
Compound `COc1cc(OC)c(OC)cc1/C=C(\C)C(=O)c1ccc(Cl)c(Cl)c1` [Compound 3a, (E)-1-(3,4-Dichlorophenyl)-2-methyl-3-(2,4,5-trimethoxyphenyl)prop-2-en-1-one] registered a melting point of 129.6 to 130.5 °C. The IC50 in data set [1] is above 100 µM. Further, in the data set on HeLa cells, the IC50 is above 100 µM. In addition, the IC50 in the data set with SiHa cells is 23.5 ± 4.55 µM. For the same compound, the IC50 in the data set with C33A cells came out at 69.9 ± 7.18 µM.
The compound `COc1cc(OC)c(/C=C(\C)C(=O)c2ccc(Cl)c(Cl)c2)c(OC)c1` [Compound 3d, (E)-1-(3,4-Dichlorophenyl)-2-methyl-3-(2,4,6-trimethoxyphenyl)prop-2-en-1-one] had a melting point of 67.1 to 67.8 °C. Besides, the IC50 in data set [1] was above 100 µM. The same compound returned an IC50 with HeLa cells of 97.6 ± 7.61 µM. The same compound came in with an IC50 in the data set on SiHa cells above 100 µM. For the same compound, it took 63.7 ± 2.59 µM to reach half-maximal inhibition with C33A cells (IC50).
Compound `C/C(=C\c1ccc(N(C)C)cc1)C(=O)c1ccc(Cl)c(Cl)c1` [Compound 3n, (E)-1-(3,4-Dichlorophenyl)-3-(4-(dimethylamino)phenyl)-2-methylprop-2-en-1-one] displayed a melting point of 184 to 184.8 °C. This compound returned an IC50 in data set [1] above 100 µM. This compound showed an IC50 in the data set on HeLa cells above 100 µM. This compound showed a concentration for half-maximal inhibition (IC50) in the data set with SiHa cells above 100 µM. The compound also came in with an IC50 in the data set with C33A cells of 23.4 ± 3.42 µM.
In turn, `COc1ccc(/C=C(\C)C(=O)c2ccc(Cl)c(Cl)c2)c(OC)c1OC` [Compound 3c, (E)-1-(3,4-Dichlorophenyl)-2-methyl-3-(2,3,4-trimethoxyphenyl)prop-2-en-1-one] registered a melting point of 114.1 to 115.5 °C. This compound also gave an IC50 in data set [1] above 100 µM. In the data set with HeLa cells, this compound registered an IC50 above 100 µM. In the data set on SiHa cells, this compound gave an IC50 of 41.8 ± 5.1 µM. The same compound had an IC50 in the data set on C33A cells of 33.9 ± 4.99 µM.
With `COc1cc(OC)c(/C=C(\C)C(=O)c2ccc(Cl)cc2Cl)c(OC)c1` [Compound 3e, (E)-1-(2,4-dichlorophenyl)-2-methyl-3-(2,4,6-trimethoxyphenyl)prop-2-en-1-one], the melting point fell in the range of 104.6 to 105.7 °C. Also, the IC50 in data set [1] is above 100 µM. The compound also displayed an IC50 with HeLa cells above 100 µM. In addition, in the data set with SiHa cells, the concentration for half-maximal inhibition (IC50) is above 100 µM. In addition, in the data set with C33A cells, the IC50 is above 100 µM.
On to `CCN(CC)c1ccc(/C=C(\C)C(=O)c2ccc(Cl)c(Cl)c2)cc1` [Compound 3o, (E)-1-(3,4-Dichlorophenyl)-3-(4-(diethylamino)phenyl)-2-methylprop-2-en-1-one], for which the melting point is 186.7 to 190.8 °C. In data set [1], this compound registered an IC50 above 100 µM. Besides, in the data set on HeLa cells, the IC50 is above 100 µM. This compound came in with an IC50 in the data set on SiHa cells above 100 µM. In the data set with C33A cells, this compound registered an IC50 of 35 ± 4.93 µM.
Turning to `COc1cccc2c1C(=O)c1c(O)c3c(c(O)c1C2=O)C[C@@](O)(C(=O)CO)C[C@@H]3O[C@H]1C[C@H](N)[C@H](O)[C@H](C)O1` [Doxorubicin], the IC50 in the data set on HeLa cells is 10.4 ± 1.09 µM; in the data set with HeLa/DDP cells (Homo sapiens, HeLa/DDP, MTT, mean ± SD), 38.3 ± 4.57 µM. Moreover, the “resistance index (RI)” value in the data set on HeLa/DDP cells (HeLa/DDP versus parental HeLa) was determined as 3.68.
With `CCN(CC)c1ccc(/C=C(\C)C(=O)c2ccc(Cl)cc2Cl)cc1` [Compound 3p, (E)-1-(2,4-Dichlorophenyl)-3-(4-(diethylamino)phenyl)-2-methylprop-2-en-1-one], the IC50 in data set [1] was above 100 µM; in the data set with HeLa cells, above 100 µM; in the data set on SiHa cells, above 100 µM; in the data set on C33A cells, 41.4 ± 5.42 µM.
`COc1cccc(/C=C(\C)C(=O)c2ccc(Cl)c(Cl)c2)c1OC` [Compound 3i, (E)-1-(3,4-Dichlorophenyl)-3-(2,3-dimethoxyphenyl)-2-methylprop-2-en-1-one]: the melting point was 99.8 to 100.7 °C. Besides, the IC50 in data set [1] is above 100 µM. In the data set on HeLa cells, this compound came in with a half-maximal inhibitory concentration (IC50) above 100 µM. Moreover, the IC50 in the data set on SiHa cells is above 100 µM. Moreover, the IC50 in the data set on C33A cells stood at 30.7 ± 8.84 µM.
In turn, `COc1ccc(/C=C(\C)C(=O)c2ccc(Cl)c(Cl)c2)c(OC)c1` [Compound 3f, (E)-1-(3,4-dichlorophenyl)-3-(2,4-dimethoxyphenyl)-2-methylprop-2-en-1-one] registered a melting point of 112.3 to 113.6 °C. In data set [1], the 50% inhibitory concentration (IC50) is above 100 µM. For the same compound, the IC50 in the data set with HeLa cells was above 100 µM. In addition, the IC50 in the data set on SiHa cells is above 100 µM. The compound further yielded an IC50 with C33A cells of 23.7 ± 4.07 µM.
`COc1cc(/C=C(\C)C(=O)c2ccc(Cl)c(Cl)c2)cc(OC)c1` [Compound 3h, (E)-1-(3,4-Dichlorophenyl)-3-(3,5-dimethoxyphenyl)-2-methylprop-2-en-1-one] yielded a melting point of 157 to 158.1 °C. This compound also gave an IC50 in data set [1] above 100 µM. The compound also displayed a half-maximal inhibitory concentration (IC50) in the data set on HeLa cells above 100 µM. Further, in the data set with SiHa cells, the IC50 was above 100 µM. In the data set on C33A cells, this compound yielded an IC50 of 54.4 ± 11.5 µM.
Regarding `COc1ccc(OC)c(/C=C(\C)C(=O)c2ccc(Cl)c(Cl)c2)c1` [Compound 3j, (E)-1-(3,4-Dichlorophenyl)-3-(2,5-dimethoxyphenyl)-2-methylprop-2-en-1-one], the IC50 was above 100 µM in data set [1], above 100 µM in the data set with HeLa cells, above 100 µM in the data set with SiHa cells and 28.5 ± 3.78 µM with C33A cells.
`COc1cc(/C=C(\C)C(=O)c2ccc(Cl)c(Cl)c2)cc(OC)c1OC` [Compound 3b, (E)-1-(3,4-Dichlorophenyl)-2-methyl-3-(3,4,5-trimethoxyphenyl)prop-2-en-1-One]: the IC50 in data set [1] amounted to 57.7 ± 4.7 µM; in the data set with HeLa cells, 43.8 ± 3.68 µM; in the data set on SiHa cells, 28.4 ± 2.37 µM; in the data set with C33A cells it was 57 ± 6.27 µM.
In turn, `COc1ccc(/C=C(\C)C(=O)c2ccc(Cl)c(Cl)c2)cc1` [Compound 3m, (E)-1-(3,4-Dichlorophenyl)-3-(4-methoxyphenyl)-2-methylprop-2-en-1-one] registered a melting point of 70 to 71.1 °C. For the same compound, the IC50 in data set [1] was above 100 µM. Besides, the IC50 in the data set on HeLa cells turned out to be 29.8 ± 0.98 µM. Besides, in the data set with SiHa cells, the IC50 amounted to 67.7 ± 5.6 µM. In the data set with C33A cells, this compound registered an IC50 of 35.1 ± 4.75 µM.
